Legend:
VSMCs [1] = test: Whole genome microarray analysis (Illumina HumanHT-12 v4) of cultured VSMCs treated with progestins; type: cell-based, human; conditions: VSMCs treated by ETO
Source text: Cultured VSMCs (n=3) treated with control medium or medium containing medroxyprogesterone acetate (MPA, 10^−7 M), or etonogestrel (ETO, 10^−7 M) were processed for whole genome analyses using Illumina Human microarray kit. After qRT-PCR confirmation of several up and down regulated genes from microarray data, Ingenuity Pathway Analysis (IPA) determined relevant upstream signaling of LAPC altered gene expression. To investigate the role of genes and relevant signaling molecules identified by IPA, VSMCs (n=3) treated with MPA or ETO±1 or 10 ng/ml recombinant CCL2 (rCCL2)±STAT1 inhibitor, 5′-methyl-thioadenosine (MTA, 100 μM) were analyzed by BrdU incorporation proliferation, TUNEL based ELISA apoptosis and Transwell insert migration assays.
VSMCs were thawed and cultured in medium 231 (M231; Life Technologies) with smooth muscle growth supplement (5% FBS; 2 ng/mL human basic fibroblast growth factor, 0.5 ng/mL human epidermal growth factor, 5 ng/mL heparin, 0.2 μg/mL insulin and 5 μg/mL BSA; Life Technologies) with 100 U/mL penicillin, 100 μg/mL streptomycin, 0.25 μg/mL fungizone. Confluent VSMCs were washed twice with 1×PBS to remove residual serum, passaged in 96-well or 6-well plates and incubated in parallel in M231 with 1% charcoal striped FBS with 0.1% ethanol (vehicle, control) or 10^−7 M MPA (Sigma-Aldrich) or 10^−7 M ETO (Organon) or 10^−7 M P4 (Sigma-Aldrich) for 15 min, 6, 48, and 72 h. VSMCs were then washed with ice-cold PBS and stored at −80° C. for further RNA and protein analyses.
Total RNA was isolated using Qiagen miRNeasy Mini Kit (Qiagen) and RNeasy MinElute Cleanup Kit (Qiagen). The quality of isolated RNAs was confirmed using an Agilent 2100 Bioanalyzer. Microarray analysis was limited to those specimens in which RNA Integrity Number exceeded 8. Microarray processes were performed in the Keck Biotechnology Resource Laboratory at Yale University (New Haven, Conn.) using Illumina Human HT-12 v4 BeadChip (Illumina). Raw data without normalization were analyzed by GeneSpring GX12.5 software (Agilent Technologies-Silicon Genetics). Normalization was performed as described (35). Genes with a fold-change >1.25 and a P value<0.05 were considered differentially expressed. Ingenuity Pathway Analysis (IPA) software (Qiagen) explored molecular and biological networks related to differentially expressed genes.

VSMCs [2] = test: VSMC proliferation assay by BrdU incorporation; type: cell-based, human; conditions: 10^−7 M, 48-h treatment, mean±SEM; control 0.81±0.03
Experimental: VSMCs were grown in 96-well plates or 8-well chamber slides and incubated with 10^−7 M of MPA (Sigma-Aldrich) or ETO (Organon) or P4 (Sigma-Aldrich) or vehicle±rCCL2 (R&D Systems)±STAT1 inhibitor, 5′-methyl-thioadenosine (MTA; EMD Millipore) (19) for 48 or 72 h. VSMCs were then analyzed for apoptosis by an ELISA based apoptosis kit (Roche) or cleaved-caspase 3 immunostaining. VSMC proliferation was measured by BrdU incorporation Kit (Cell Signaling). (See further details in SI Materials and Methods).
VSMCs were thawed and cultured in T-75 cell culture flasks in medium 231 (M231; Life Technologies) with smooth muscle growth supplement (5% FBS; 2 ng/mL human basic fibroblast growth factor, 0.5 ng/mL human epidermal growth factor, 5 ng/mL heparin, 0.2 μg/mL insulin and 5 μg/mL BSA; Life Technologies) with 100 U/mL penicillin, 100 μg/mL streptomycin, and 0.25 μg/mL fungizone. Confluent VSMCs were washed twice with 1×PBS to remove residual serum, and then passaged (5,000 cells per well) in 96-well plates and incubated in parallel in M231 with 1% charcoal striped FBS with 0.1% ethanol (vehicle, control), 10^−7 M MPA (Sigma-Aldrich), 10^−7 M ETO (Organon), or 10^−7 M P4 (Sigma-Aldrich)±rCCL2 (monocyte chemotactic protein-1; R&D Systems)±STAT1 inhibitor, 5′-methyl-thioadenosine (MTA; EMD Millipore) for 48 or 72 h.
BrdU (Cell Signaling) 1× in 100-μL M231 was added to each well during the final 24 h of incubation. At the end of 48- or 72-h incubation period, medium was removed and the wells washed twice with ice-cold PBS. VSMC proliferation was measured using BrdU cell proliferation Kit (Cell Signaling) at room temperature. Cells was incubated in 100 μL per well of the fixing/denaturing solution for 30 min, and then replaced by 100 μL per well BrdU detection antibody solution for 1 h. Following three rinses with wash buffer, plates were incubated in HRP-conjugated secondary antibody (100 μL per well) for 30 min. After three additional rinses with wash buffer, tetramethylbenzidine substrate solution (100 μL per well) was added for 20 min and the reaction stopped by adding 100 μL per well STOP solution. Absorbance was measured at 450 nm using Spectra Max190 microplate reader (Molecular Devices) to detect BrdU incorporation in each well.

Structure (SMILES): C#C[C@]1(O)CC[C@H]2[C@@H]3CCC4=CC(=O)CC[C@@H]4[C@H]3C(=C)C[C@@]21CC [ETO, etonogestrel]
- Fold-change, ABI gene family, member 3 (NESH) binding protein (ABI3BP) (VSMCs [1]): −1.636
- Fold-change, Actin, γ 2, smooth muscle, enteric (ACTG2) (VSMCs [1]): 1.514
- Fold-change, Alcohol dehydrogenase 1A (class I), alpha polypeptide (ADH1A) (VSMCs [1]): 1.54
- Fold-change, Bone morphogenetic protein 6 (BMP6) (VSMCs [1]): 1.467
- Fold-change, Chemokine (C-C motif) ligand 2 (CCL2) (VSMCs [1]): −2.211
- Fold-change, Claudin 11 (oligodendrocyte transmembrane protein) (CLDN11) (VSMCs [1]): −1.544
- Fold-change, Collagen, type VIII, α 1, transcript variant 2 (COL8A1) (VSMCs [1]): 1.44
- Fold-change, Complement factor B (CFB) (VSMCs [1]): −1.835
- Fold-change, Cysteine-rich secretory protein LCCL domain containing 2, (CRISPLD2) (VSMCs [1]): 1.661
- Fold-change, DNA-damage regulated autophagy modulator 1 (DRAM1) (VSMCs [1]): −1.535
- Fold-change, Decorin, transcript variant A2, (DCN) (VSMCs [1]): 1.762
- Fold-change, EF-hand domain family, member D1 (EFHD1) (VSMCs [1]): 1.471
- Fold-change, Endoglin (Osler-Rendu-Weber syndrome 1) (ENG) (VSMCs [1]): −1.428
- Fold-change, Filaggrin (FLG) (VSMCs [1]): −1.59
- Fold-change, Growth arrest-specific 6 (GAS6) (VSMCs [1]): 1.4661
- Fold-change, H19, imprinted maternally expressed transcript noncoding RNA (H19) (VSMCs [1]): 2.497
- Fold-change, Hypothetical protein FLJ40504 (FLJ40504) (VSMCs [1]): −1.625
- Fold-change, Indolethylamine N-methyltransferase (INMT) (VSMCs [1]): 1.443
- Fold-change, Intelectin 2 (ITLN2) (VSMCs [1]): 1.655
- Fold-change, LY6/PLAUR domain containing 1, transcript variant 1 (LYPD1) (VSMCs [1]): −1.447
- Fold-change, Latexin (LXN) (VSMCs [1]): −1.779
- Fold-change, Leptin (obesity homolog, mouse) (LEP) (VSMCs [1]): 1.602
- Fold-change, Mitogen-activated protein kinase kinase 2 (MAP2K2) (VSMCs [1]): −1.437
- Fold-change, PREDICTED: miscRNA (LOC399965) (VSMCs [1]): −1.534
- Fold-change, PREDICTED: similar to LYPDC1 protein (LOC100134073) (VSMCs [1]): −1.536
- Fold-change, PREDICTED: similar to filaggrin (LOC730833) (VSMCs [1]): −1.474
- Fold-change, Pleckstrin homology-like domain, family A, member 1 (PHLDA1) (VSMCs [1]): −1.487
- Fold-change, Potassium voltage-gated channel, shaker-related subfamily, 0 member 1, transcript variant2 (KCNAB1) (VSMCs [1]): −1.492
- Fold-change, Prostaglandin-endoperoxide synthase 1, transcript variant 2 (PTGS1) (VSMCs [1]): 1.555
- Fold-change, RAB11 family interacting protein 1 (class I), transcript variant 3, (RAB11FIP1) (VSMCs [1]): 1.55
- Fold-change, Retinoic acid receptor responder (tazarotene induced) 1, transcript variant 1, (RARRES1) (VSMCs [1]): −2.146
- Fold-change, Retinoic acid receptor responder (tazarotene induced) 1, transcript variant 2, (RARRES1) (VSMCs [1]): −1.809
- Fold-change, Superoxide dismutase 2, mitochondrial, transcript variant 2, (SOD2) (VSMCs [1]): −1.778
- Fold-change, Thioredoxin domain containing 5, transcript variant 2 (TXNDC5) (VSMCs [1]): 1.429
- Fold-change, Transmembrane 4 L six family member 1 (TM4SF1) (VSMCs [1]): −1.467
- Fold-change, Transmembrane protein 119 (TMEM119) (VSMCs [1]): 1.448
- Fold-change, Wingless-type MMTV integration site family, member 5A (WNT5A) (VSMCs [1]): 1.504
- Fold-change, cDNA FLJ20769 fis, clone COL06674 (PREDICTED: Receptor tyrosine kinase-like orphan receptor 1) (VSMCs [1]): 1.528
- Fold-change, Matrix Gla protein (MGP) (VSMCs [1]; table entry 6): 1.581
- Fold-change, Matrix Gla protein (MGP) (VSMCs [1]; table entry 8): 1.554
- BrdU incorporation (VSMCs [2]): 0.40±0.03

From patent publication US20180078615A1, “USE OF CCL2 TO INHIBIT ABNORMAL UTERINE BLEEDING” (UNIVERSITY OF SOUTH FLORIDA, priority 2015, published 2018)
